Results taken from paper PMC3682882 (BMC Pharmacology & Toxicology, 2013).

Experiments:
clinical = assay: clinical
Source text: Subjects were randomized to receive one of two treatment sequences depicted in Table 1. […] The last dose of drug for each study period was before breakfast on day 3. […] On the evening before each treatment period, subjects were admitted and confined to the clinical site for the duration of the 3-day treatment period. Pharmacokinetic (PK), pharmacodynamic (PD; urine glucose and FPG), and safety (adverse events, vital signs, ECG, clinical laboratory parameters including lactic acid) assessments were performed at check-in and throughout the treatment periods. For each treatment period, the PK sampling occurred on Day 3.
All sample times are relative to the time of the administration of the first dose of study medication on Day 3 of each period. […] Blood samples for remogliflozin etabonate, remogliflozin and GSK279782 were collected into tubes containing potassium-oxalate/ sodium fluoride, placed on ice and centrifuged at approximately 3000 rpm for 10 minutes at approximately 4°C. The harvested plasma was frozen at -70°C until analysis for remogliflozin etabonate, remogliflozin and GSK279782 concentrations.
The concentrations of remogliflozin etabonate, remogliflozin, and GSK279782 in deproteinized plasma samples and standards were determined by high-performance liquid chromatography (HPLC) with tandem mass spectrometry (MS/MS) using isotopically labelled internal standards ([^2H7]- remogliflozin etabonate, [^2H7]- remogliflozin and [^2H7]-GSK279782 as previously described.
Plasma proteins from a […] plasma aliquot were precipitated using acetonitrile containing the internal standard (200 ng mL-1). Samples were vortex mixed then centrifuged. The resulting supernatant was transferred and mixed with […] of HFBA buffer (water containing 10 mM ammonium acetate and 0.26% (v/v) of heptofluorobutyric acid) prior to injection. HPLC was performed on a Shimadzu LC-10A HPLC system. Chromatography was performed on a MAC-MOD Ace 3 C18, 4.6 × 50 mm column at a flow rate of 1.0 mL min-1. An isocratic mobile phase elution with 82:18 (v/v) HFBA buffer : Acetonitrile was used. Samples were analysed in positive ion mode by Turbo Ionspray LC/MS/MS with a PE/Sciex API 3000. The calibration range was 20 to 5000 ng mL-1. Performance of the method was assessed during a 3 day validation study using quality control samples at 5 concentrations 20, 80, 500, 4000 and 5000 ng mL-1.
Actual elapsed time from dosing was used to estimate all individual plasma PK parameters.
• Cmax and tmax were the actual observed values.
• AUC(0–12) or AUC(0–last) was calculated by a combination of linear and logarithmic trapezoidal methods. The linear trapezoidal method was used for all incremental trapezoids arising from increasing concentrations and the logarithmic trapezoidal method was used for those arising from decreasing concentrations.

subjects with T2DM [1] = assay: 24-hour urine glucose excretion in subjects with T2DM; format: in vivo, human
Protocol: Urine was collected on Days 1 to 3 of each treatment period, and urine glucose concentrations were analyzed for the following intervals: 0–4 hours, 4–8 hours, 8–12 hours and 12–24 hours. The quantity of glucose and creatinine excreted in urine was determined by multiplying the urine glucose or creatinine concentration for each time interval by the volume of urine for the corresponding collection interval. The total 24-hour quantity of glucose excreted in urine on Day 2 was calculated by adding the amounts collected during each interval. Urine glucose and creatinine amounts were summarized for each collected interval and for the total 24-hour collection period.

subjects with T2DM [2] = assay: Clinical safety and tolerability (adverse events, laboratory parameters, vital signs); format: in vivo, human; settings: N = 13
Protocol: (§1) For each treatment period, subjects were admitted to the clinical facility on the evening of Day -1 to undergo check-in procedures including a physical examination, 12-lead ECG, vital signs, clinical laboratory tests (chemistry, hematology and urinalysis), lactic acid measurement, fasting blood glucose measurement, alcohol screen, drugs of abuse screen and pregnancy test (if applicable). On each study day morning, a fasting blood sugar measurement was determined by glucose monitor. On Days 1 and 2, vital signs and a 12-lead ECG were recorded. Samples for clinical laboratory measure were also taken on Days 1 and 3. Subjects returned to the clinic 7–10 days following the last dosing day for a follow-up physical examination and laboratory evaluation. During the between-treatment intervals, subjects were provided with glucose monitors to measure fasting blood glucose concentrations; subjects were instructed as to how to recognize and treat symptoms of hypoglycemia. Adverse events were monitored throughout the entire study (randomization to follow-up visit). Any adverse events reported during the study were assessed by the investigator for intensity (mild, moderate, severe) and relationship to the study drug (causality). Where possible, all adverse events were followed until stabilization, resolution, or until the event was otherwise explained.

subjects with T2DM [3] = assay: Lactic acid concentration by treatment; format: in vivo, human; settings: during the three day treatment period
Protocol: as §1

subjects with T2DM [4] = assay: Fasting plasma glucose change from baseline; format: in vivo, human; settings: baseline pre-dose Day 1 to Day 2 and Day 3
Protocol: FPG concentrations were collected on Day -1, 1, 2 and 3. Changes in plasma glucose from baseline (Day 1) to Day 2 and 3 were calculated.

[5] = Statistical comparison of PK parameters with and without co-administered drug (drug-drug interaction); format: in vivo, human
Protocol: Safety and PD parameters were summarized using descriptive statistics. […] The PROC MIXED from SAS (Version 8.2, Cary, NC, USA) was used to fit the model. The estimates and the 90% CI were exponentiated in order to obtain the ratio of geometric means and its CI. The assumptions underlying the model were assessed by visual inspection of residual plots. […] Tmax was analysed non-parametrically using Hodges–Lehmann method.

subjects with T2DM [6] = assay: Percent of filtered glucose excreted in the urine; format: in vivo, human; settings: for percent filtered glucose excreted in urine, max / percent filtered glucose excreted in urine, mean (SD) / percent filtered glucose excreted in urine, median / percent filtered glucose excreted in urine, min: Day 2, N = 13; for percent of filtered glucose excreted in the urine, mean: combined 24 hour collection, Day 2
Protocol: Creatinine clearance (CLcr) was calculated on Day 2 and used to determine the percent of filtered glucose load excreted in urine. By using the urine collections on Day 2, CLcr was calculated as follows:
Clcr=totalamountofurinecreatinine0-xxhinterval/nearestassociatedserumcreatinine=urinecreatininemg/xxhours/serumcreatininemg/dL*100mL/dL/xx*60minutes/xxhours,
where urine creatinine (mg/xx hours) is the amount of […] excreted in a xx-hour period. Urine creatinine was calculated by multiplying the urine creatinine concentration by the urine volume (mL) for a 0-xxh time interval as follows:
urinecreatininemg/xxhours=urinecreatinineconcentrationmg/dL*intervalvolumemL/100mL/dL.
Percent of filtered glucose excreted in the urine was estimated for all collection intervals on Day 2 as follows:
GlucoseAmountExcreted/Clcr*PG*TimeIntervalorUrineglucosemg/dL*SerumCreatininemg/dL/urinecreatininemg/dL*PGmg/dL
where glucose amount excreted is the amount of glucose excreted during the xx-hour period, and CLcr is calculated for the xx-hour time interval. PG is the plasma glucose concentration reported closest to the midpoint of the time interval. Because only pre-dose PG was collected in this study, the pre-dose PG on Day 2 was used. Time interval is the number of minutes of urine collection for that interval.

[7] = cited from earlier work
subjects with T2DM [8] = assay: Fluid intake, urine volume and fluid balance; format: in vivo, human; settings: Day 1, 0–24-hour interval, intake minus output
Source text: Total fluid intake, urine volume, and fluid balance (intake minus output) were summarized over the 0–24-hour interval of Day 1 and Day 2 and the 0–12-hour interval of Day 3 of each treatment period.

diabetic rodent models = settings: several diabetic rodent models; cited from earlier work
mice = settings: cited from earlier work
rats = settings: cited from earlier work
[9] = tested on: healthy subjects and subjects with T2DM; set-up: method as in PMID 21733056, PMID 23668634; settings: single oral doses up to 1000 mg in healthy subjects, up to 1000 mg BID for 2 weeks in T2DM; cited from earlier work
[10] = tested on: panel of metabolic enzymes and transporters, including organic cation transporters; set-up: method as in earlier work; settings: panel including organic cation transporters involved with metformin renal secretion; cited from earlier work
[11] = treatment for 2 weeks, subjects with T2DM; cited from earlier work
[12] = human, in vivo, 500 mg, AUC(0–12)

In the case of CN(C)C(=N)N=C(N)N [Metformin, reference compound], the AUC(0-t) (clinical; [12]) is reported as 7140 ng·h/mL, the Cmax (clinical; human, in vivo) is reported as 1020 ng/mL and the Tmax (clinical; plasma, Day 3, MET BID, median (range)) is reported as 4.0 (1.0 - 6.0) h. The “effect on urine glucose output” value (subjects with T2DM [1]; Day 2) was “relatively no effect”, the “24-hour urine glucose, max” value (subjects with T2DM [1]; Day 2, N = 13) was 43.9 mmol and the “24-hour urine glucose, mean (SD)” value (subjects with T2DM [1]; Day 2, N = 13) was 13.6 (13.4) mmol. For the same compound, the “24-hour urine glucose, median” value (subjects with T2DM [1]; Day 2, N = 13) was 10.9 mmol, the “24-hour urine glucose, min” value (subjects with T2DM [1]; Day 2, N = 13) was 1.1 mmol and the Abdominal pain upper (subjects with T2DM [2]) was 0 n (%). For the same compound, the “Any Event” value (subjects with T2DM [2]) was 5 (38%) n (%), the Back pain (subjects with T2DM [2]) was 2 (15%) n (%) and the Dizziness (subjects with T2DM [2]) was 1 (8%) n (%). The Dyspepsia (subjects with T2DM [2]) was 0 n (%), the Fatigue (subjects with T2DM [2]) was 1 (8%) n (%) and the Headache (subjects with T2DM [2]) was 2 (15%) n (%). The Hypoglycemia (subjects with T2DM [2]) was 1 (8%) n (%), the Muscle spasms (subjects with T2DM [2]) was 1 (8%) n (%) and the Nasopharyngitis (subjects with T2DM [2]) was 0 n (%). For the same compound, the Neck pain (subjects with T2DM [2]) was 1 (8%) n (%), the Osteoarthritis (subjects with T2DM [2]) was 0 n (%) and the Rash (subjects with T2DM [2]) was 0 n (%). The Toothache (subjects with T2DM [2]) was 1 (8%) n (%), the Wound (subjects with T2DM [2]) was 0 n (%) and the mean lactate concentrations (subjects with T2DM [3]) was “increase or increasing trend”. The “changes in fasting plasma glucose concentrations from baseline” value (subjects with T2DM [4]) was “remained relatively stable”, the “effect of remogliflozin etabonate on PK parameters” value ([5]; metformin PK with MET + RE vs MET) was “no effect” and the “percent filtered glucose excreted in urine, max” value (subjects with T2DM [6]) was 4.71%. The “percent filtered glucose excreted in urine, mean (SD)” value (subjects with T2DM [6]) was 1.41 (1.52) percent, the “percent filtered glucose excreted in urine, median” value (subjects with T2DM [6]) was 0.95% and the “percent filtered glucose excreted in urine, min” value (subjects with T2DM [6]) was 0.10%. The “percent of filtered glucose excreted in the urine, mean” value (subjects with T2DM [6]) was 1.4%, the renal excretion [7] was 3 times the glomerular filtration rate and the “fluid balance (median)” value (subjects with T2DM [8]) was -775 mL.
Work on CCOC(=O)OC[C@H]1O[C@@H](Oc2nn(C(C)C)c(C)c2Cc2ccc(OC(C)C)cc2)[C@H](O)[C@@H](O)[C@@H]1O [Remogliflozin etabonate] yielded a Tmax (clinical; human, in vivo) of 3 h, an AUC(0-t) (clinical; human, in vivo, AUC(0–last)) of 98.9 ng·h/mL and a Cmax (clinical; human, in vivo) of 79.5 ng/mL. For the same compound, the “24-hour urine glucose, max” value (subjects with T2DM [1]; Day 2, N = 13) was 796 mmol, the “24-hour urine glucose, median” value (subjects with T2DM [1]; Day 2, N = 13) was 497 mmol and the “24-hour urine glucose, min” value (subjects with T2DM [1]; Day 2, N = 13) was 384 mmol. The Abdominal pain upper (subjects with T2DM [2]) was 1 (8%) n (%), the “Any Event” value (subjects with T2DM [2]) was 2 (15%) n (%) and the Back pain (subjects with T2DM [2]) was 0 n (%). For the same compound, the Dizziness (subjects with T2DM [2]) was 0 n (%), the Dyspepsia (subjects with T2DM [2]) was 0 n (%) and the Fatigue (subjects with T2DM [2]) was 0 n (%). For the same compound, the Headache (subjects with T2DM [2]) was 0 n (%), the Hypoglycemia (subjects with T2DM [2]) was 0 n (%) and the Muscle spasms (subjects with T2DM [2]) was 1 (8%) n (%). For the same compound, the Nasopharyngitis (subjects with T2DM [2]) was 0 n (%), the Neck pain (subjects with T2DM [2]) was 0 n (%) and the Osteoarthritis (subjects with T2DM [2]) was 0 n (%). For the same compound, the Rash (subjects with T2DM [2]) was 0 n (%), the Toothache (subjects with T2DM [2]) was 0 n (%) and the Wound (subjects with T2DM [2]) was 0 n (%). The antidiabetic efficacy (diabetic rodent models) was “exhibit antidiabetic efficacy”, the mean lactate concentrations (subjects with T2DM [3]) was “unchanged or decreased slightly” and the urinary glucose excretion (mice) was “increase urinary glucose excretion in a dose-dependent manner”. The “changes in fasting plasma glucose concentrations from baseline” value (subjects with T2DM [4]) was “small decreases”, the “AUC(0-last) point estimate (GLSM Ratio)” value ([5]; MET + RE / RE) was 1.00 and the “Cmax point estimate (GLSM Ratio)” value ([5]; MET + RE / RE) was 0.85. The “decrease in Cmax” value ([5]; MET + RE compared to remogliflozin etabonate alone) was 15%, the “effect of metformin on AUC” value ([5]; MET + RE vs remogliflozin etabonate alone) was “no effects” and the urinary glucose excretion (rats) was “increase urinary glucose excretion in a dose-dependent manner”. For the same compound, the safety and tolerability [9] was “safe and well tolerated”, the “percent filtered glucose excreted in urine, max” value (subjects with T2DM [6]) was 61.3% and the “percent filtered glucose excreted in urine, mean (SD)” value (subjects with T2DM [6]) was 51.3 (7.02) percent. For the same compound, the “percent filtered glucose excreted in urine, median” value (subjects with T2DM [6]) was 51.8%, the “percent filtered glucose excreted in urine, min” value (subjects with T2DM [6]) was 38.4% and the “percent of filtered glucose excreted in the urine, mean” value (subjects with T2DM [6]) was “approximately 50%”. The “inhibition of metabolic enzymes and transporters” value [10] was “lack of inhibition” and the “fluid balance (median)” value (subjects with T2DM [8]) was -1145 mL.
Compound Cc1c(Cc2ccc(OC(C)C)cc2)c(O[C@@H]2O[C@H](CO)[C@@H](O)[C@H](O)[C@H]2O)nn1C(C)C [Remogliflozin] has a Tmax (clinical; human, in vivo) of 3 h, an AUC(0-t) (clinical; [12]) of 6810 ng·h/mL and a Cmax (clinical; human, in vivo) of 2690 ng/mL. For the same compound, the “inhibition of metabolic enzymes and transporters” value [10] was “lack of inhibition”.
In the case of NS(=O)(=O)c1cc2c(cc1Cl)NCNS2(=O)=O [hydrochlorothiazide], the “effect on the clearance of metformin” value [11] is listed as “no significant effect”.
